# Laboratory results reported in ChEMBL document CHEMBL2203036, “Discovery of 1-[2-(2,4-dimethylphenylsulfanyl)phenyl]piperazine (Lu AA21004): a novel multimodal compound for the treatment of major depressive disorder” (J Med Chem, 2011).
# Target: 5-hydroxytryptamine receptor 2C (Homo sapiens) (UniProt P28335)
# Assay: Binding affinity to human 5HT2C receptor
# 5-hydroxytryptamine receptor 2C (Homo sapiens), sequence (P28335 whole entry, looked up): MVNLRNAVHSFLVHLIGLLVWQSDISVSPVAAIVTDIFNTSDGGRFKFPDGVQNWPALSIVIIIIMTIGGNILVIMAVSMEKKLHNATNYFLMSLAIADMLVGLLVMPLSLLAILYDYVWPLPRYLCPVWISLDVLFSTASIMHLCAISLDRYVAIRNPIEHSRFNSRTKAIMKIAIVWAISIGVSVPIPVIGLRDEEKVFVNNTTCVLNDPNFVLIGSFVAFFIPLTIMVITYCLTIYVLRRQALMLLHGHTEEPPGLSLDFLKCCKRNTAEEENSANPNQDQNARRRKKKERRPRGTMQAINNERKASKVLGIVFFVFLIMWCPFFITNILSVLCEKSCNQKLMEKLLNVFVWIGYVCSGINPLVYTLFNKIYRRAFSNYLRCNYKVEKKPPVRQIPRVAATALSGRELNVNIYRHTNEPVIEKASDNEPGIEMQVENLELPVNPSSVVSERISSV
compound,measurement,value
Cc1ccc(Sc2ccccc2N2CCNCC2)c(C)c1.Cl,Ki,180 nM
